# Measurements as given in US20030187076A1, “Non-steroidal analogs of 2-methoxyestradiol” (priority 2002, published 2003).
# How the values were obtained:
# [1] = test system: chick embryo chorioallantoic membrane; experiment: chick embryo chorioallantoic membrane (CAM) assay; type: in vivo; conditions: 100 μg methylcellulose disk, after 48 hours
# Description: Anti-proliferative activity can be evaluated in situ by testing the ability of the new non-steroidal estradiol derivatives to inhibit the proliferation of new blood vessel cells (angiogenesis). A suitable assay is the chick embryo chorioallantoic membrane (CAM) assay described by Crum et al. Science 230:1375 (1985). See also, U.S. Pat. No. 5,001,116, hereby incorporated by reference, which describes the CAM assay. Briefly, fertilized chick embryos are removed from their shell on day 3 or 4, and a methylcellulose disc containing the drug is implanted on the chorioallantoic membrane. The embryos are examined 48 hours later and, if a clear avascular zone appears around the methylcellulose disc, the diameter of that zone is measured.
# MCF-7 cell = experiment: estrogen dependent MCF-7 cell proliferation; type: cell-based; conditions: over a wide range of concentrations
# Description: 2-Methoxyestradiol is an endogenous, steroidal metabolite of estradiol (E2) that has potent anti-proliferative activity and induces apoptosis in a wide variety of tumor and non-tumor cell lines. […] What is needed is a series of compounds that constitute analogs of 2-methoxyestradiol which are non-steroidal in structure and which will have similar biological properties to 2-methoxyestradiol and that can be used in similar applications.
# [2] = test system: vascular endothelial cell; conditions: endothelial versus tumor cell proliferation; cited from earlier work
SMILES,inhibition of cell mitosis and growth of new blood vessels [1],estrogenic activity (MCF-7 cell),"half-maximal inhibition of endothelial cell proliferation, concentration lower than for tumor cell proliferation [2] [logs]"
COc1cc2c(cc1O)CC[C@@H]1[C@@H]2CC[C@]2(C)[C@@H](O)CC[C@@H]12 [2-methoxyestradiol],inhibit cell mitosis and the growth of new blood vessels,not estrogenic,–
CO[C@@H]1[C@H](OC(=O)NC(=O)CCl)CC[C@]2(CO2)[C@H]1[C@@]1(C)O[C@@H]1CC=C(C)C [AGM-1470],–,–,4
